According to US20150313228A1, “SYNERGISTIC HERBICIDAL COMBINATIONS AND METHODS OF USE” (priority 2012, published 2015):

Assays:
[1] = tested on: Palmer amaranth; test: Post-emergence application in Palmer amaranth under greenhouse conditions (Example 7); type: in vivo; details: 24 days after application
Text: (§1) The following testing protocol was employed to evaluate the post-emergence application of herbicides and herbicide combinations as described in the following examples unless otherwise specified. The weed species to be treated were planted in 3.5 inch pots containing redi-earth potting mix and grown under greenhouse conditions. When the weed species reached a height of about four inches, herbicide was applied at the specified application rate using a track sprayer with a flat even nozzle type, 9501E nozzle size, and spray pressure of 165 kPa. After the application of the herbicide(s), the pots were only sub-irrigated as needed. Throughout the test period, temperature was maintained from about 20° C. to about 30° C. and relative humidity was maintained at about 30%. The plants were rated visually and percentage of weed control was determined for each treatment at 15 to 21 days after herbicide application.
(§2) Post-emergence application of several herbicides and herbicide combinations was evaluated in Palmer amaranth under greenhouse conditions. The plants were rated visually and percentage of weed control was determined at 24 days after herbicide application. The herbicides and herbicide combinations evaluated are listed in Table 7-A below together with the corresponding percent control data. The data represent an average value (n=6).
The results of the analysis are reported below in Table 7-B (glyphosate+dicamba), Table 7-C(glyphosate+metribuzin), and Table 7-D (dicamba+metribuzin).

[2] = tested on: velvetleaf; test: Post-emergence application in velvetleaf under greenhouse conditions (Example 8); type: in vivo
Text: as §1
as §2, with “velvetleaf” for “Palmer amaranth”, “8-A” for “7-A”
The results of the analysis are reported below in Table 8-B (glyphosate+dicamba), Table 8-C(glyphosate+metribuzin), and Table 8-D (dicamba+metribuzin).

O=C(O)CNCP(=O)(O)O [Glyphosate]
PERCENT CONTROL ([1]; 560 g/ha): 20.0%
PERCENT CONTROL ([1]; 1120 g/ha): 50.0%
PERCENT CONTROL (ACTUAL) ([2]; 560 g/ha, 24 days after application): 81.0%
PERCENT CONTROL (ACTUAL) ([2]; 1120 g/ha, 24 days after application): 100.0%
PERCENT CONTROL (ACTUAL) ([2]; Table 8-C, velvetleaf, 24 days, dose 560 g/ha): 81.0%
PERCENT CONTROL (ACTUAL) ([2]; Table 8-C, velvetleaf, 24 days, dose 1120 g/ha): 100.0%
